“Also recorded” adds a separate entry of the source.
Columns and labels:
[1] = molecular target: T1, 5-HT2B receptor (Homo sapiens, UniProt P41595); test: FLIPR Ca2+ flux functional agonist assay at 5-HT2B; type: cell-based; conditions: for Emax: agonist activity, FLIPR Ca2+ flux, HEK293, at max dose, read-out: 5-HT2B % Act @ Max Dose
T1 construct: expressed in transfected cells; host or cells: HEK293
Experimental: (§1) Disclosed compounds were tested for agonist activity at several serotonin receptor subtypes (5-HT2A, […], and 5-HT2C) using Ca^2+ flux functional assays, with the results summarized in Table 9.
(§2) Test Compounds. Compounds were prepared as described above.
(§3) Functional Assays at 5-HT2A and 5-HT2B. Agonist activity at 5-HT2A and 5-HT2B receptors was determined using a FLIPR Ca^2+ flux assay at WuXi AppTec (Hong Kong) Limited according to their standard protocols. Briefly, stably transfected cells expressing the receptor of interest (HEK293 for both 5-HT2A and 5-HT2B) were grown and plated in a 384-well plate and incubated at 37° C. and 5% CO2 overnight. A solution of 250 mM probenecid in 1 mL FLIPR assay buffer was prepared fresh. This was combined with a fluorescent dye (Fluo-4 Direct™) to make a final assay concentration of 2.5 mM. Compounds were diluted 1:3.16 for 10 points and 750 nL was added to a 384 well compound plate using ECHO along with 30 μL assay buffer. The fluorescent dye was then added to the assay plate along with assay buffer to a final volume of 40 μL. The cell plate was incubated for 50 min at 37° C. and 5% CO2 and placed into the FLIPR Tetra along with the compound plate. 10 μL of references and compounds were then transferred from the compound plate into the cell plate and the fluorescent signal was read.

[2] = Metabolic stability in human liver microsomes (HLM); type: in vitro ADME; conditions: for stability in HLM (in words): 1 μM, 0.50 mg protein/mL, 1 mM NADPH, 37 °C, 60 min; for half-life at 1 µM / microsomal CLint at 1 µM: human liver microsomes 0.50 mg/mL, NADPH 1 mM, test compound 1 μM, 37° C., pH 7.4, 60 min
Experimental: as §2
(§4) HLM Stability. Pooled HLM from adult male and female donors (Corning 452117) were used. Microsomal incubations were carried out in multi-well plates. Liver microsomal incubation medium consisted of PBS (100 mM, pH 7.4), MgCl2 (1 mM), and NADPH (1 mM), with 0.50 mg of liver microsomal protein per mL. Control incubations were performed by replacing the NADPH-cofactor system with PBS. Test compounds (1 μM, final solvent concentration 1.0%) were incubated with microsomes at 37° C. with constant shaking. Six time points over 60 minutes were analyzed, with 60 μL aliquots of the reaction mixture being drawn at each time point. The reaction aliquots were stopped by adding 180 μL of cold (4° C.) acetonitrile containing 200 ng/mL tolbutamide and 200 ng/mL labetalol as internal standards (IS), followed by shaking for 10 minutes, and then protein sedimentation by centrifugation at 4,000 rpm for 20 minutes at 4° C. Supernatant samples (80 μL) were diluted with water (240 μL) and analyzed for parent compound remaining using a fit-for-purpose liquid chromatography-tandem mass spectrometry (LC-MS/MS) method.
(§5) Data Analysis. The elimination constant (kel), half-life (t1/2), and intrinsic clearance (CLint) were determined in a plot of […] versus time, using linear regression analysis.

[3] = molecular target: T2, 5-HT2A receptor (Homo sapiens, UniProt P28223); test: FLIPR Ca2+ flux functional agonist assay at 5-HT2A; type: cell-based; design: expressed in transfected cells; host or cells: HEK293; conditions: for agonist activity at 5-HT2A (in words): potency or efficacy; for Emax: HEK293, read-out: 5-HT2A % Act @ Max Dose
Experimental: as §1, §2, §3

[4] = Metabolic stability in dog liver microsomes (DLM); type: in vitro ADME, Beagle dogs; conditions: for stability in DLM (in words): 1 μM, 0.50 mg protein/mL, 1 mM NADPH, 37 °C, 60 min; for half-life at 1 µM / microsomal CLint at 1 µM: dog liver microsomes 0.50 mg/mL, NADPH 1 mM, test compound 1 μM, 37° C., pH 7.4, 60 min
Experimental: as §2
as §4, with “DLM” for “HLM”, “Beagle dogs (Xenotech D1000)” for “and female donors (Corning 452117)”
as §5

[5] = molecular target: T2, 5-HT2A receptor; test: Radioligand binding at 5-HT2A ([3H]ketanserin); design: expressed in transfected cells
Experimental: (§6) The binding affinities of disclosed compounds at the ketanserin binding site of the 5-HT2A receptor, the LSD binding site of the 5-HT2B receptor, and the mesulergine binding site of the 5-HT2C receptor were determined in radioligand binding experiments.
(§7) Method. The affinity of the test compounds for 5-HT2A, 5-HT2B, and 5-HT2C receptors was determined in radioligand binding experiments with [^3H]ketanserin, [^3H]LSD, and [^3H]mesulergine, respectively, by WuXi AppTec (Hong Kong) Limited, using methods adapted from the literature and under conditions described in Table 7.

[6] = molecular target: T3, 5-HT2C receptor (Homo sapiens, UniProt P28335); test: Radioligand binding at 5-HT2C ([3H]mesulergine)
T3 sequence (P28335 33-458): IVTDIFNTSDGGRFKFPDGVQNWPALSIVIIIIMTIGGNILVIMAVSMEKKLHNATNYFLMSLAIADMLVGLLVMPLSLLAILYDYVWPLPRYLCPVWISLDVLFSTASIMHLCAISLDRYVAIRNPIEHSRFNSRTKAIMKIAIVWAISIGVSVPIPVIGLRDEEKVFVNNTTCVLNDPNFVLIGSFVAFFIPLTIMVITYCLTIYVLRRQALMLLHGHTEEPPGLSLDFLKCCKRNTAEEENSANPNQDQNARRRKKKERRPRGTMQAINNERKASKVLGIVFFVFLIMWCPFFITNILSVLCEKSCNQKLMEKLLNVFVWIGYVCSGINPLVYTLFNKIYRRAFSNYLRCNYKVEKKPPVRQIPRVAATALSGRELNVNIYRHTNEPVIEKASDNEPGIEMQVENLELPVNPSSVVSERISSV
Experimental: as §6, §7

T2 sequence (P28223 whole entry): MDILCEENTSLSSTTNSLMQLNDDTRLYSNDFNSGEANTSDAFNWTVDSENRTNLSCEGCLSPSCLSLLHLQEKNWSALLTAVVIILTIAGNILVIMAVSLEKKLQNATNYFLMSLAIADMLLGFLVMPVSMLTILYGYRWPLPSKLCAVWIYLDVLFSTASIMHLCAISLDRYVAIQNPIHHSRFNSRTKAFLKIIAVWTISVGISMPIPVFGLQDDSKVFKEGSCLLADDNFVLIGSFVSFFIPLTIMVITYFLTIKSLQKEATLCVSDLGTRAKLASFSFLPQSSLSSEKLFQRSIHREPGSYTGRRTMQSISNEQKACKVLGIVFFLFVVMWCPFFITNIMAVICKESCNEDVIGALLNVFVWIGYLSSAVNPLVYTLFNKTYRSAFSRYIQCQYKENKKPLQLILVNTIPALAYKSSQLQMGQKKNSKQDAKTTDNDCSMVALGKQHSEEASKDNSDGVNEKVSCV
T1 sequence (P41595 whole entry): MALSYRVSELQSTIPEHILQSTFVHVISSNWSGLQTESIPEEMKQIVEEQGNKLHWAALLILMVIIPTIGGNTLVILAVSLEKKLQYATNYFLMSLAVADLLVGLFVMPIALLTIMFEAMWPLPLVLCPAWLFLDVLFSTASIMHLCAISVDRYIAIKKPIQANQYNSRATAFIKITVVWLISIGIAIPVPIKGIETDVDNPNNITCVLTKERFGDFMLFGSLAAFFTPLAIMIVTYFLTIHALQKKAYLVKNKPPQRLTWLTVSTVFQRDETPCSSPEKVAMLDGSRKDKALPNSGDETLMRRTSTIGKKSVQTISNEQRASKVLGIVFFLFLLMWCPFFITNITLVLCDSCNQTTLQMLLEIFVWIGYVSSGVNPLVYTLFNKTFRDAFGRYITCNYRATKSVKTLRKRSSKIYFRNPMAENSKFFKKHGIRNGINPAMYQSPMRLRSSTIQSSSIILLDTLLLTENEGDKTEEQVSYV

SMILES	EC50 [1] [µM]	Emax [1] [%]	stability in HLM (in words) [2]	half-life at 1 µM [2] [min]	microsomal CLint at 1 µM [2] [µL/min/mg]	EC50 [3] [nM]	agonist activity at 5-HT2A (in words) ([3]; Ca2+ flux)	Emax [3] [%]	stability in DLM (in words) [4]	half-life at 1 µM [4] [min]	microsomal CLint at 1 µM [4] [µL/min/mg]	Ki [5] [nM]	binding at 5-HT2A receptors (in words) ([5]; [3H]ketanserin)	Ki [6] [nM]	selectivity for 5-HT2A over 5-HT2C (in words) ([6]; Ki at 5-HT2C vs Ki at 5-HT2A)	CLint and half-life in HLM (in words) ([2]; 1R versus 1S)	fold more potent at 5-HT2A ([3]; 1R compared to 1S, Ca2+ flux)	CLint and half-life in DLM (in words) ([4]; 1R versus 1S)	selectivity for 5-HT2A (in words) ([5]; 1R, over 5-HT2B and 5-HT2C, compared to 1S)	fold lower affinity at 5-HT2C ([6]; 1R compared to 1S)
CCC(N)Cc1cc(OC)c(CCCCCC(F)(F)F)cc1OC (racemic) [Compound 2a, 1-(2,5-dimethoxy-4-(6,6,6-trifluorohexyl)phenyl)butan-2-amine]	> 10	4.85	significantly higher stability compared to 1R and 1S	> 145	< 9.6	156	substantially less potent than 1R and 1S in the 5-HT2A FLIPR assay; also recorded: substantially lower efficacy than 1R or 1S	36.2	significantly higher stability compared to 1R and 1S	71.3	19.4	5.4	potent ligands for 5-HT2A	61.7	even higher selectivity than 1R for 5-HT2A over 5-HT2C					
CCCCCCc1cc(OC)c(C[C@H](N)CC)cc1OC [Compound 1R, (R)-1-(4-hexyl-2,5-dimethoxyphenyl)butan-2-amine]	> 10	14.8	substantially more stable than 1S	37.5	37	23.1	Efficacy at 5-HT2A was also greater for 1R compared to 1S	76.8	substantially less stable than 1S	11.3	122	3.44		18		lower CLint and longer half-life	~ 2 fold	higher CLint and shorter half-life	greater selectivity for 5-HT2A	~ 7 fold
CCCCCCc1cc(OC)c(C[C@@H](N)CC)cc1OC [Compound 1S, (S)-1-(4-hexyl-2,5-dimethoxyphenyl)butan-2-amine]	> 10	16.1		19.7	70.2	43.8		59.7		22.9	60.4	3.34		2.68						

Reference: patent publication US20260347310A1, “PHENALKYLAMINES AND METHODS OF MAKING AND USING THE SAME” (GILGAMESH PHARMACEUTICALS, INC., priority 2022, published 2026)
